Source: paper PMC9796023, “In vivo and in vitro characterization of GL0034, a novel long‐acting glucagon‐like peptide‐1 receptor agonist” (Diabetes, Obesity & Metabolism, 2022)
Where no end group is shown, it is not given here. [ ]: non-standard residue; d: D form. Aib = CC(C)(N)C(=O)O

What was measured:
[1] = biological target: T1, GLP-1R (PathHunter CHO-K1-βarr2-EA-GLP-1R cells) (Homo sapiens, UniProt P43220); assay: PathHunter β-arrestin-2 recruitment assay; type: cell-based
T1 construct: host or cells: CHO-K1 (PathHunter, co-expressing β-arrestin-2-EA)
T1 sequence (P43220 24-463): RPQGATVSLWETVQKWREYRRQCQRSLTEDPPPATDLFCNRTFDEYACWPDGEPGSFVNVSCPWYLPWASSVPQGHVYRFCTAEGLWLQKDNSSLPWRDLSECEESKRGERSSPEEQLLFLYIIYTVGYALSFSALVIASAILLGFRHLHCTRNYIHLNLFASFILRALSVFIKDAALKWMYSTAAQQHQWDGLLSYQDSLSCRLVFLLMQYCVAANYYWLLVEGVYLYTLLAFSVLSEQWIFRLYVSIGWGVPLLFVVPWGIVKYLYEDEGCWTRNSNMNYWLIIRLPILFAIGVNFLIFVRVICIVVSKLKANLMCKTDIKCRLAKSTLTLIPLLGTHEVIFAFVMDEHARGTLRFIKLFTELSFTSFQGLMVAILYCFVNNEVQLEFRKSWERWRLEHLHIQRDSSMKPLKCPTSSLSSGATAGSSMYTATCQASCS
Description: PathHunter CHO‐K1‐βarr2‐EA‐GLP‐1R cells were stimulated with agonist for 30 minutes at 37°C in Ham's F12 medium without FBS. At the end of the incubation period, cells were lysed by addition of PathHunter detection reagents and luminescent signal was subsequently recorded from each well.

[2] = test system: HFHS diet-fed C57BL6/J mice; assay: Study in high-fat, high-sucrose diet-fed mice; type: in vivo, mouse; details: end of study, n = 3
Description: Male C57BL6/J mice were purchased from Charles River (UK). The mice were housed in a pathogen‐free facility with a 12‐hour light/12‐hour dark cycle. From the age of 8 weeks they were put on a 58 kcal % fat and sucrose diet (D12331; Research Diets Inc., New Brunswick, New Jersey) for 8 weeks to induce obesity and glucose intolerance. […] Body weight was monitored at regular intervals. For glucose tolerance testing, mice were fasted overnight (total 16 hours) and given free access to water. At 9:00 AM, glucose (3 g/kg body weight) was administered via intraperitoneal injection or oral gavage. Blood was sampled from the tail vein at 0, 5, 15, 30, 60 and 90 minutes after glucose administration. Blood glucose was measured with an automatic glucometer (Accuchek; Roche, Burgess Hill, UK). To quantify circulating insulin, 10 μL blood was collected from the tail vein into heparin‐coated tubes (Sarstedt, Beaumont Leys, UK). Plasma was separated by sedimentation at 10 000g for 10 minutes at 4°C. Plasma insulin levels were measured in 5‐μL aliquots by ELISA kits from Crystal Chem (Elk Grove Village, Illinois). At the end of the study, pancreata were isolated and processed for immunohistochemistry.

[3] = biological target: T2, human SNAP-GLP-1R (HEK293-SNAP-GLP-1R cells) (Homo sapiens, UniProt P43220); assay: Time-resolved FRET kinetic competition binding vs exendin(9-39)-FITC
T2 construct: expressed in transfected cells
T2 sequence (P43220 24-463): as above
Description: (§1) For in vitro data, the average of within‐assay replicates was counted as one biological replicate. For kinetic binding assays, rate constants for association and dissociation of the unlabelled ligands were calculated using the “kinetics of competition binding” algorithm in PRISM 8 (GraphPad Software), using values for exendin(9‐39)‐FITC determined in the same experiment. Functional concentration response data were fitted using three‐parameter logistic fitting (PRISM 8), with constraints applied where appropriate. Pharmacokinetic analysis was performed using Phoenix® Win‐Nonlin® (Version 8.0). Statistical comparisons were performed using Student's t‐test or one‐way ANOVA, as appropriate. Paired or matched analyses were performed where permitted by the experimental design. Specific post hoc tests are indicated in the legends. Statistical significance was assigned where P < 0.05. Data are represented as mean ± standard error of the mean (SEM) throughout, with individual replicates indicated where possible.

[4] = Plasma pharmacokinetic study in CD-1 mice; type: in vivo, mouse; details: male CD-1 mice, single s.c. 1 mg/kg, LC-MS/MS, n = 5 per timepoint
Description: A plasma pharmacokinetic study of GL0034 was performed in male CD‐1 Mice (6‐9 weeks of age; 30‐50 g body weight) procured from the Laboratory Animal Resources Department of Sun Pharma Advanced Research Company Ltd (www.sparc.life, a subsidiary of Sun Pharma Industries Ltd.). For full details see Supplementary Methods.
as §1
Animals (n=45) were procured from Laboratory Animal Resources Dept. of Sun Pharma Advanced Research Company Ltd. (www.sparc.life, a subsidiary of Sun Pharma Industries Ltd.). Animals were acclimatized for one day. On day 0, each animal was weighed. Animals were divided into 9 groups, each group containing 5 male animals (one group representing one time-point). All the animals were injected subcutaneously at a dose of 1 mg/kg (dose volume: 10 ml/kg) using 26½ gauge needle attached to an appropriately graduated syringe. At 1, 2, 4, 8, 12, 24, 48, 72 and 96 hours after injection, ~500 µL of blood was collected from mice by retro-orbital plexus puncture using capillary micro-centrifuge tubes containing anticoagulant (15 µL of 10% K2EDTA per tube). Plasma was separated from the collected blood samples by centrifugation at ~3300 rpm (1985 g) for 10 min at 4°C ± 2°C. GL0034 concentrations were estimated using liquid chromatography with tandem mass spectrometry (LCMS-MS). Lower limit of quantitation (LLOQ) for GL0034 was 50 ng/mL.

[5] = biological target: T2, human SNAP-GLP-1R (HEK293-SNAP-GLP-1R cells); assay: cAMP assay (HTRF) in HEK293-SNAP-GLP-1R cells; type: cell-based
Description: HEK293‐SNAP‐GLP‐1R cells were stimulated with agonist for 30 minutes at 37°C, either in serum‐free media (SFM) or SFM supplemented with 2% human serum albumin (HSA; Sigma Aldrich, Poole, UK). cAMP was determined at the end of the incubation period by homogenous time‐resolved fluorescence (HTRF; cAMP Dynamic 2 kit; Cisbio) using a Spectramax i3x plate reader (Molecular Devices, Wokingham, UK).
For in vitro data, the average of within‐assay replicates was counted as one biological replicate. For kinetic binding assays, rate constants for association and dissociation of the unlabelled ligands were calculated using the “kinetics of competition binding” algorithm in PRISM 8 (GraphPad Software), using values for exendin(9‐39)‐FITC determined in the same experiment. Functional concentration response data were fitted using three‐parameter logistic fitting (PRISM 8), with constraints applied where appropriate. Pharmacokinetic analysis was performed using Phoenix® Win‐Nonlin® (Version 8.0). Statistical comparisons were performed using Student's t‐test or one‐way ANOVA, as appropriate. Paired or matched analyses were performed where permitted by the experimental design. Specific post hoc tests are indicated in the legends. Statistical significance was assigned where P < 0.05. […]

[6] = biological target: human serum albumin (human) (UniProt P02768)
[7] = biological target: human SNAP-GLP-1R (glucagon-like peptide-1 receptor) on HEK293 cells (human, UniProt P43220 24-463, SNAP tag labelled with SNAP-Lumi4-Tb); assay: cell-based or functional assay
Chain of human SNAP-GLP-1R (glucagon-like peptide-1 receptor) on HEK293 cells (P43220 24-463): as above

Molecule: CC[C@H](C)[C@H](NC(=O)[C@H](Cc1ccccc1)NC(=O)[C@H](CCC(=O)O)NC(=O)[C@H](CCCCNC(=O)COCCOCCNC(=O)C(C)(C)NC(=O)CC[C@H](NC(=O)CCCCCCCCCCCCCCCCC(=O)O)C(=O)O)NC(=O)[C@H](C)NC(=O)[C@H](C)NC(=O)[C@H](CCC(N)=O)NC(=O)CNC(=O)[C@H](CCC(=O)O)NC(=O)[C@H](CC(C)C)NC(=O)[C@H](Cc1ccc(O)cc1)NC(=O)[C@H](CO)NC(=O)[C@H](CO)NC(=O)[C@@H](NC(=O)[C@H](CC(=O)O)NC(=O)[C@H](CO)NC(=O)[C@@H](NC(=O)[C@H](Cc1ccccc1)NC(=O)[C@@H](NC(=O)CNC(=O)[C@H](CCC(=O)O)NC(=O)C(C)(C)NC(=O)[C@@H](N)Cc1c[nH]cn1)[C@@H](C)O)[C@@H](C)O)C(C)C)C(=O)N[C@@H](C)C(=O)N[C@@H](Cc1c[nH]c2ccccc12)C(=O)N[C@@H](CC(C)C)C(=O)N[C@H](C(=O)N[C@@H](CCCNC(=N)N)C(=O)NCC(=O)N[C@@H](CCCNC(=N)N)C(=O)NCC(=O)N[C@@H](CC(C)C)C(=O)O)C(C)C [GL0034]
- Emax ([1]; 30 min, 37°C, Ham's F12 without FBS, estimate ± SEM, n = 5): 102 ± 1%
- EC50 ([1]; read-out: βarr2 LogEC50 (converted)): 79.4 nM
- Plasma amylase levels [2]: no difference
- Kd [3]: 25.1 nM
- koff ([3]; HEK293-SNAP-GLP-1R, 37°C, competition with 10 nM exendin(9-39)-FITC, estimate ± SEM, n = 4): 0.00367 s⁻¹
- Kel [4]: 0.0906 h⁻¹
- Cmax ([4]; mouse, sc): 921 nM
- Tmax ([4]; mouse, sc): 4 h
- half-life ([4]; mouse, sc, read-out: t1/2 (plasma half-life) (converted)): 7.65 h
- Emax ([5]; 30 min, 37°C, estimate ± SEM, n = 5): 97 ± 2%
- EC50 ([5]; read-out: cAMP LogEC50 (converted)): 0.631 nM

Molecule: CC[C@H](C)[C@H](NC(=O)[C@H](Cc1ccccc1)NC(=O)[C@H](CCC(=O)O)NC(=O)[C@H](CCCCNC(=O)COCCOCCNC(=O)COCCOCCNC(=O)CC[C@H](NC(=O)CCCCCCCCCCCCCCCCC(=O)O)C(=O)O)NC(=O)[C@H](C)NC(=O)[C@H](C)NC(=O)[C@H](CCC(N)=O)NC(=O)CNC(=O)[C@H](CCC(=O)O)NC(=O)[C@H](CC(C)C)NC(=O)[C@H](Cc1ccc(O)cc1)NC(=O)[C@H](CO)NC(=O)[C@H](CO)NC(=O)[C@@H](NC(=O)[C@H](CC(=O)O)NC(=O)[C@H](CO)NC(=O)[C@@H](NC(=O)[C@H](Cc1ccccc1)NC(=O)[C@@H](NC(=O)CNC(=O)[C@H](CCC(=O)O)NC(=O)C(C)(C)NC(=O)[C@@H](N)Cc1cnc[nH]1)[C@@H](C)O)[C@@H](C)O)C(C)C)C(=O)N[C@@H](C)C(=O)N[C@@H](Cc1c[nH]c2ccccc12)C(=O)N[C@@H](CC(C)C)C(=O)N[C@H](C(=O)N[C@@H](CCCNC(=N)N)C(=O)NCC(=O)N[C@@H](CCCNC(=N)N)C(=O)NCC(=O)O)C(C)C [Semaglutide, reference compound]
- Plasma amylase levels [2]: no difference

Molecule: GL0034 (peptide)
- ∆pEC50 of GLP-1R cAMP signalling potency with and without 2% HSA (HEK293-SNAP-GLP-1R cells) [6]: 2.1

B1: GL0034 (peptide)
chain: H[Aib]EGTFTSDVSSYLEGQAAKEFIAWLVRGRGL
modifications: not fully specified (residue 20); also: K20 linker includes Aib, structure not given here
- GLP-1R endocytosis (high content imaging), HEK293-SNAP-GLP-1R cells, LogEC50 (M) [7]: -9.2 M (log)
- cAMP production, HEK293-SNAP-GLP-1R cells, 30 minutes, LogEC50 (M) [7]: -9.2 M (log)
